Measured values from patent publication US10897906B2, “Fungicide for the treatment of fungal pathogens causing mycotoxins” (priority 2015, dated 2021).

Columns and labels:
[1] = Surface tension of aqueous bicarbonate spray solution (Kruss DSA30); format: physicochemical; conditions: aqueous solutions at typical in-use concentrations (2-5% active ingredient)
Protocol: (§1) In this application surface tension and contact angle were measured using a Kruss DSA30 system, […] was measured using a pendant drop technique with analysis carried out after application of the Laplace-Young equation, […] was measured following application of a droplet on to an artificial hydrophobic (Para-film) surface. The particle sizes of the crystals of the bicarbonate salt were determined by microscopy following the application of Motic Advanced Imaging Software.

[2] = Contact angle of aqueous bicarbonate spray solution (Kruss DSA30, hydrophobic Para-film surface); format: physicochemical; conditions: aqueous solutions at typical in-use concentrations (2-5% active ingredient)
Protocol: as §1

Question: Which results are given for O=C([O-])O.[K+] [potassium bicarbonate]?
Answer: Surface tension compared with water [1]: virtually identical to that achieved with water alone; Contact angle with the plant tissues compared with water [2]: virtually identical to that achieved with water alone
